Where two headings read alike, the source gives them in different places. Where no end group is shown, it is not given here.
What was measured:
Test in all cases: Direct-binding FRET assay
ATF2 = biological target: T1, ATF2 (Homo sapiens, UniProt P15336); settings: mean or single, read-out: Kd
T1 construct: made in house
T1 sequence (P15336 352-415 limits assumed): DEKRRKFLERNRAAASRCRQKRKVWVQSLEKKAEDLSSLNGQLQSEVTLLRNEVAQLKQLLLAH
Method: (§1) The direct binding assay was performed manually in 384-well plates and is similar to a previously described assay. Wells were filled with 20 μL of 1 mM TCEP-HCl. A 4 μM stock of acceptor protein was made fresh in 1 mM TCEP-HCl, and 20 μL was titrated in 2-fold dilutions over the wells. […] The direct-binding FRET data were fit as previously described. Briefly, the Kd of the designed peptide homodimer was experimentally determined and used with previously determined target homodimer Kd values to determine the heterodimer Kd. The homodimer Kd values used for the human bZIPs were from; experiments done by […] et al. used the same protein constructs for the human bZIP proteins, the same buffer conditions, and the same assay. The fitting used a system of ordinary differential equations to describe the concentrations of homo and heterodimers formed by the donor (D) and acceptor (A) as a function of the heterodimer Kd. MATLAB was used to simulate the binding experiment for different Kd values, and the value that gave the best agreement between simulation and experiment was assigned. A minimum 15% change in the donor fluorescence upon titrating the acceptor peptide from 0 to 1000 nM was required for a fit to be attempted. If this minimum was not met, the interaction was classified as “NS” for no signal change. […] These interactions were marked “AS” to indicate anomalous signal. We attributed this to interactions between the peptides, the dyes and the walls of the assay plates at low concentrations. These curves could not be fit, given their unusual shapes at low concentrations of acceptor. For such curves, we removed the first five points and re-fit the data. […] One example of this is increasing concentrations of acceptor causing an increase in donor fluorescence.

ATF5 = biological target: T2, ATF5 (Homo sapiens, UniProt Q9Y2D1); settings: read-out: Kd
T2 construct: made in house
T2 sequence (Q9Y2D1 208-271 limits assumed): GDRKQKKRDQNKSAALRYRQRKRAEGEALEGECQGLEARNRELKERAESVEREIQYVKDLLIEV
Method: as §1

BATF2 = biological target: T3, BATF2 (Homo sapiens, UniProt Q8N1L9); settings: mean or single, read-out: Kd
T3 construct: made in house
T3 sequence (Q8N1L9 17-80 limits assumed): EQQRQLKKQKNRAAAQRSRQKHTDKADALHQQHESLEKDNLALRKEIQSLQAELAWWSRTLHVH
Method: as §1

CREB3 = biological target: T4, CREB3 (Homo sapiens, UniProt O43889); settings: mean or single, read-out: Kd
T4 construct: made in house
T4 sequence (O43889 150-213 limits assumed): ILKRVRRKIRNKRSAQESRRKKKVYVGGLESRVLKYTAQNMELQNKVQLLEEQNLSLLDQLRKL
Method: as §1

CREB3L3 = biological target: T5, CREB3L3 (Homo sapiens, UniProt Q68CJ9); settings: mean or single, read-out: Kd
T5 construct: made in house
T5 sequence (Q68CJ9 243-306 limits assumed): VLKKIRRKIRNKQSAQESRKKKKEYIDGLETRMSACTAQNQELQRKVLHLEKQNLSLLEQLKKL
Method: as §1

CREBZF = biological target: T6, CREBZF (Homo sapiens, UniProt Q9NS37); settings: mean or single, read-out: Kd
T6 construct: made in house
T6 sequence (Q9NS37 204-267 limits assumed): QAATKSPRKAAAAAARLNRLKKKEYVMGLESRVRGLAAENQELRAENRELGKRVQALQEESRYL
Method: as §1

DBP = biological target: T7, DBP (Homo sapiens, UniProt Q10586); settings: mean or single, read-out: Kd
T7 construct: made in house
T7 sequence (Q10586 255-318 limits assumed): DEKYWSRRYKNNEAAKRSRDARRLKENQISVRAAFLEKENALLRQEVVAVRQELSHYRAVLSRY
Method: as §1

HLF = biological target: T8, HLF (Homo sapiens, UniProt Q16534); settings: mean or single, read-out: Kd
T8 construct: made in house
T8 sequence (Q16534 225-288 limits assumed): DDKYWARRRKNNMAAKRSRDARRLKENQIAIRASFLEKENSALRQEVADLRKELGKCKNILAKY
Method: as §1

NFE2L2 = biological target: T9, NFE2L2 (Homo sapiens, UniProt Q16236); settings: mean or single, read-out: Kd
T9 construct: made in house
T9 sequence (Q16236 497-560 limits assumed): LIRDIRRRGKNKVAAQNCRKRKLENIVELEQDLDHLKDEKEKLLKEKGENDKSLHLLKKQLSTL
Method: as §1

NFIL3 = biological target: T10, NFIL3 (Homo sapiens, UniProt Q16649); settings: mean or single, read-out: Kd
T10 construct: made in house
T10 sequence (Q16649 73-136 limits assumed): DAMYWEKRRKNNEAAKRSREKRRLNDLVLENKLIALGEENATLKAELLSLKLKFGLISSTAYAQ
Method: as §1

[1] = 4°C, C-terminal rhodamine design
[2] = 23°C, C-terminal rhodamine design
[3] = 23°C, N-terminal rhodamine design
[4] = 37°C, C-terminal rhodamine design
[5] = 37°C, N-terminal rhodamine design
[6] = 4°C, N-terminal rhodamine design

- Kd (ATF2; [1]): > 5000 nM
- Kd (ATF2; [2]): > 5000 nM
- Kd (ATF2; [3]): > 1000 nM
- Kd (ATF2; [4]): > 5000 nM
- Kd (ATF2; [5]): > 1000 nM
- Kd (ATF5; 4°C, C-terminal rhodamine design, mean or single): 1.1 nM
- Kd (ATF5; 4°C, N-terminal rhodamine design, repeat 3): 200 to 1000 nM
- Kd (ATF5; 37°C, C-terminal rhodamine design, mean or single): 1680 nM
- Kd (ATF5; 37°C, N-terminal rhodamine design, repeat 1): > 1000 nM
- Kd (ATF5; 37°C, N-terminal rhodamine design, repeat 2): > 1000 nM
- Kd (ATF5; 37°C, N-terminal rhodamine design, repeat 3): > 5000 nM
- Kd (BATF2; [1]): 591 nM
- Kd (BATF2; [6]): 76 nM
- Kd (BATF2; [2]): > 5000 nM
- Kd (BATF2; [3]): 509 nM
- Kd (BATF2; [4]): > 1000 nM
- Kd (BATF2; [5]): > 5000 nM
- Kd (CREB3; [1]): 147 nM
- Kd (CREB3; [6]): > 1000 nM
- Kd (CREB3; [2]): > 5000 nM
- Kd (CREB3; [3]): > 1000 nM
- Kd (CREB3; [4]): 200 to 1000 nM
- Kd (CREB3; [5]): > 1000 nM
- Kd (CREB3L3; [1]): 230 nM
- Kd (CREB3L3; [6]): > 5000 nM
- Kd (CREB3L3; [2]): 414 nM
- Kd (CREB3L3; [3]): > 5000 nM
- Kd (CREB3L3; [4]): 657 nM
- Kd (CREB3L3; [5]): > 1000 nM
- Kd (CREBZF; [1]): 409 nM
- Kd (CREBZF; [6]): 375 nM
- Kd (CREBZF; [2]): > 5000 nM
- Kd (CREBZF; [3]): > 5000 nM
- Kd (CREBZF; [4]): > 1000 nM
- Kd (DBP; [1]): > 1000 nM
- Kd (DBP; [6]): > 5000 nM
- Kd (DBP; [2]): > 1000 nM
- Kd (DBP; [3]): > 1000 nM
- Kd (DBP; [4]): > 1000 nM
- Kd (DBP; [5]): > 1000 nM
- Kd (HLF; [1]): > 5000 nM
- Kd (HLF; [6]): > 5000 nM
- Kd (HLF; [2]): > 5000 nM
- Kd (HLF; [3]): > 1000 nM
- Kd (HLF; [4]): > 5000 nM
- Kd (HLF; [5]): > 1000 nM
- Kd (NFE2L2; [1]): > 5000 nM
- Kd (NFE2L2; [6]): > 1000 nM
- Kd (NFE2L2; [2]): > 1000 nM
- Kd (NFE2L2; [3]): > 1000 nM
- Kd (NFE2L2; [4]): > 5000 nM
- Kd (NFE2L2; [5]): > 1000 nM
- Kd (NFIL3; [1]): > 1000 nM
- Kd (NFIL3; [6]): > 1000 nM
- Kd (NFIL3; [2]): > 1000 nM
- Kd (NFIL3; [3]): > 1000 nM
- Kd (NFIL3; [4]): > 1000 nM
- Kd (NFIL3; [5]): > 1000 nM
Sequence: KRIAYLRQRIAELRNENHVLESRIQRMEKEKDALQQDRDHLEYEL [ATF5-d1]
